According to patent US20230167084A1, “TETRAHYDROISOQUINOLINE COMPOUNDS AS NRF2 ACTIVATORS” (C4X Discovery Limited, priority 2020, published 2023):

Key:
[1] = target: T1, human KEAP1 (N-term, residues 321-609) (Homo sapiens, UniProt Q14145); experiment: KEAP1 Kelch Fluorescence Polarization (FP) Assay; type: binding; conditions: inhibition of Kelch domain-NRF2 interaction; 2 nM FITC-labelled NRF2 peptide, 25 nM KEAP1, 1 h at room temperature; compounds below 10 nM cannot be differentiated
T1 construct: human KEAP1 (N-term, residues 321-609) enzyme
T1 sequence (Q14145 321-609): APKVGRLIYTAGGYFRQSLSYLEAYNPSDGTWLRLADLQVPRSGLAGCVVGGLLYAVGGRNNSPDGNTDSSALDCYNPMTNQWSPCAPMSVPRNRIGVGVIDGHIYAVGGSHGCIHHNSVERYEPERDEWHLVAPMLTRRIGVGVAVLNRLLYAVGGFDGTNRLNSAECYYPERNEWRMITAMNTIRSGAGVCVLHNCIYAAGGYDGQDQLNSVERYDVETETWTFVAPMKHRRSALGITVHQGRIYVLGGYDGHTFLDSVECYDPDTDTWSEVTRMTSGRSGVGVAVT
Procedure: Inhibition of the Kelch domain-NRF2 interaction was determined using a fluorescence polarization-based competition assay in a black 384-well microplate. Compounds were tested at a starting concentration of 10 μM serially diluted 1:3 to generate a 12-point dose response curve on the Biomek FX robot. Each well contained 2 nM FITC-labelled NRF2 peptide (FITC-LDEETGEFL-NH2) and 25 nM human KEAP1 (N-term, residues 321-609) enzyme in a final volume of 20 μL of assay buffer (50 mM Tris-HCl pH 8.0, 100 mM NaCl, 5 mM MgCl2, 0.005% Tween-20, 0.005% BSA, 0.5% DMSO) in the presence of varying concentrations of test compound. Unlabelled peptide (LDEETGEFL-NH2) at 50 μM (negative control) and 0.5% DMSO (positive control) was used to determine the assay window.
After 1 h at room temperature, fluorescence polarization (excitation 470 nm/emission 530 nm) was measured using an Envision plate reader. IC50 values were determined by fitting the data to a four parameter logistic fit using XLfit or XE Runner within ActivityBase. The assay limit is such that compounds below 10 nM cannot be differentiated.

[2] = system: NRF2 mediated gene NAD(P)H:quinone acceptor oxidoreductase 1 (NQO1) in BEAS-2B cells; experiment: Beas2B NQO1 mRNA Cell Based Assay; conditions: Homo sapiens, NQO1 mRNA increase compared to vehicle (0.1% DMSO), 24 h
Procedure: The up regulation of the NRF2 mediated gene NAD(P)H:quinone acceptor oxidoreductase 1 (NQO1) was measured using the following assay method: BEAS-2B cells (ATCC CRL-9609) were plated in 96-well clear plates at 20,000 cells/well in 75 μL of cell culture media and incubated overnight (37° C., 5% CO2). On day 2, 25 μL of compound or controls were added to the cells for 24 h. On day 3, the medium was aspirated from the plate and the Cells-to-CT™ 1-Step TaqMan® Kit (Ambion A25603) was used to perform expression analysis directly from cultured cells without RNA purification according to the manufacturer's instructions.
Briefly, cells were washed with ice cold PBS and 22.5 μL of room-temperature DNase/Lysis solution was added to the cells and incubated at room temperature for 5 minutes. To stop the reaction, 2.25 μL of stop solution was added to the cell lysate. The samples were diluted 1:5 using nuclease free water and 2.5 μL transferred into the PCR plate. Real-time PCR was performed using the C-1000 Thermal Cycler (Bio-Rad) using human beta actin as the internal control. The cDNA was amplified with a specific primer for NQO1 using the 1-step RT-PCR master mix (Ambion Cells-to-CT™ 1-Step TaqMan® Kit A25603). The primers/probes sets that were used for amplification of cDNA were obtained from TaqMan Gene Expression Assays (Applied Biosystems). The comparative CT (ΔΔCT) relative quantification method was used to calculate the relative mRNA level of the target gene NQO1 as described in the Applied Biosystems Chemistry Guide. The data are expressed as an increase in target gene mRNA compared to vehicle (0.1% DMSO) control and the EC50 values were determined by fitting the data to a four parameter logistic fit using XLfit or XE Runner within ActivityBase.

Compound | IC50 [1] [nM] | EC50 [2] [nM]
Cn1cc(COc2c(F)cc(Cl)c3c2[C@@H](CN2CC4(CC4)CC2=O)N(C(=O)[C@@H]2CCCC[C@]2(C)C(=O)O)CC3)nn1 [Example 6, (1S,2R)-2-((S)-5-chloro-7-fluoro-8-((1-methyl-1H-1,2,3-triazol-4-yl)methoxy)-1-((6-oxo-5-azaspiro[2.4]heptan-5-yl)methyl)-1,2,3,4-tetrahydroisoquinoline-2-carbonyl)-1-methylcyclohexane-1-carboxylic acid] | 5 | 1
Cn1nnc(COc2c(F)cc(Cl)c3c2[C@@H](CN2CCOCC2=O)N(C(=O)[C@@H]2CCCC[C@]2(C)C(=O)O)CC3)c1C(F)F [Example 2, (1S,2R)-2-((S)-5-chloro-8-((5-(difluoromethyl)-1-methyl-1H-1,2,3-triazol-4-yl)methoxy)-7-fluoro-1-((3-oxomorpholino)methyl)-1,2,3,4-tetrahydroisoquinoline-2-carbonyl)-1-methylcyclohexane-1-carboxylic acid] | 5.4 | 1.3
C[C@]1(C(=O)O)CCC[C@H]1C(=O)N1CCc2c(Cl)cc(F)c(OCc3nnn4c3CCCC4)c2[C@H]1CN1CC2(CC2)CC1=O [Example 4, (1S,2R)-2-((S)-5-chloro-7-fluoro-1-((6-oxo-5-azaspiro[2.4]heptan-5-yl)methyl)-8-((4,5,6,7-tetrahydro-[1,2,3]triazolo[1,5-a]pyridin-3-yl)methoxy)-1,2,3,4-tetrahydroisoquinoline-2-carbonyl)-1-methylcyclopentane-1-carboxylic acid] | 5 | 0.3

Continued by falling IC50 [1], values first:

IC50 [1] [nM] | Compound | EC50 [2] [nM]
4.9 | Cc1nnc(COc2c(F)cc(Cl)c3c2[C@@H](CN2CC4(CC4)CC2=O)N(C(=O)[C@@H]2CCCC[C@]2(C)C(=O)O)CC3)n1C [Example 5, (1S,2R)-2-((S)-5-chloro-8-((4,5-dimethyl-4H-1,2,4-triazol-3-yl)methoxy)-7-fluoro-1-((6-oxo-5-azaspiro[2.4]heptan-5-yl)methyl)-1,2,3,4-tetrahydroisoquinoline-2-carbonyl)-1-methylcyclohexane-1-carboxylic acid] | 0.5
4.8 | Cn1nnc(COc2c(F)cc(Cl)c3c2[C@@H](CN2CC4(CC4)CC2=O)N(C(=O)[C@@H]2CCCC[C@]2(C)c2nnn[nH]2)CC3)c1C(F)F [Example 1, 5-(((S)-5-chloro-8-((5-(difluoromethyl)-1-methyl-1H-1,2,3-triazol-4-yl)methoxy)-7-fluoro-2-((1R,2S)-2-methyl-2-(1H-tetrazol-5-yl)cyclohexane-1-carbonyl)-1,2,3,4-tetrahydroisoquinolin-1-yl)methyl)-5-azaspiro[2.4]heptan-6-one] | 6.8
4.4 | C[C@@H]1CC(=O)N(C[C@@H]2c3c(c(Cl)cc(F)c3OCc3nnn(C)c3C(F)F)CCN2C(=O)[C@@H]2CCCC[C@]2(C)C(=O)O)C1 [Example 3, (1S,2R)-2-((S)-5-chloro-8-((5-(difluoromethyl)-1-methyl-1H-1,2,3-triazol-4-yl)methoxy)-7-fluoro-1-(((R)-4-methyl-2-oxopyrrolidin-1-yl)methyl)-1,2,3,4-tetrahydroisoquinoline-2-carbonyl)-1-methylcyclohexane-1-carboxylic acid] | 2.1
